Among the test systems are SF-268; HCT-15; Malme-3M; MDA-N; NCI-H226; SR; NCI-H522; UACC-257; NCI/ADR-RES; SW-620; M14; IGROV-1; COLO 205; MDA-MB-435; Hs-578T; SF-295; SNB-19; UACC-62; A549.
Holding throughout (assay): DTP human tumour cell line panel, 48 h

Molecules are shown by their SMILES.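 Cells were grown in 96-well plates and exposed to each compound for 48 hours at five concentrations; endpoints were interpolated linearly between bracketing concentrations, or set to the highest concentration if not reached. GI50: concentration for 50% inhibition of growth.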 The source made the active and inactive calls. No stated cut-off is given here; in the data, active = GI50 up to about 1.1 µM and inactive = higher.

The text below walks through data of ChEMBL document CHEMBL1201862, “PubChem BioAssay data set” (2004).

Broadly, the GI50 is the concentration at which growth is held to half of that of the control. As to `O=C(Nc1ccc(Br)cc1)c1c(-c2ccccc2)c2ccc(O)cc2oc1=O`, the GI50 with SF-268 was > 10 µM (inactive); in the experiment on HCT-15, > 10 µM; with Malme-3M, > 10 µM (inactive); in the experiment with MDA-N, > 10 µM (inactive); in the experiment with NCI-H226, > 10 µM (inactive); in the experiment on SR, > 10 µM (inactive). Besides, the GI50 in the experiment with NCI-H522, with UACC-257, in the experiment on NCI/ADR-RES, in the experiment with SW-620, in the experiment with M14 and in the experiment on IGROV-1 was > 10 µM (inactive) throughout. Besides, the GI50 with COLO 205, in the experiment with MDA-MB-435, in the experiment with Hs-578T and in the experiment with SF-295 was > 10 µM (inactive) throughout.
On to `CC1CC(C)CC(NC2=NCCO2)C1` (stereo not drawn), for which the GI50 is > 100 µM (inactive) in the experiment on SF-268; > 100 µM in the experiment with HCT-15; > 100 µM (inactive) with Malme-3M; > 100 µM (inactive) with SNB-19; > 100 µM (inactive) in the experiment with MDA-N; > 100 µM (inactive) in the experiment on NCI-H226. Also, the GI50 with SR, in the experiment with NCI-H522, in the experiment on UACC-257, in the experiment on UACC-62, in the experiment with NCI/ADR-RES and in the experiment on A549 was > 100 µM (inactive) throughout. Further, the GI50 with SW-620, with M14, in the experiment on IGROV-1, with COLO 205, in the experiment with MDA-MB-435 and in the experiment with Hs-578T was > 100 µM (inactive) each time. Further, the GI50 in the experiment with SF-295 is > 100 µM (inactive).
On to `S=c1sc2c(n1-c1ccccc1)N=CNC2S` (stereo not drawn), for which the GI50 is 56.5 µM (inactive) with SF-268; 97.3 µM in the experiment with HCT-15; 44.8 µM (inactive) in the experiment on Malme-3M; 73.1 µM (inactive) in the experiment with SNB-19; 44.6 µM (inactive) in the experiment on NCI-H226; 95.9 µM (inactive) with SR. In addition, the GI50 in the experiment with NCI-H522 is 45.5 µM (inactive); with UACC-257 it was 48.8 µM (inactive); with UACC-62, 43.7 µM (inactive); with A549, 65.9 µM (inactive); in the experiment on SW-620, > 100 µM (inactive); in the experiment with M14, > 100 µM (inactive). Moreover, the GI50 is > 100 µM (inactive) in the experiment on IGROV-1, > 100 µM (inactive) in the experiment with COLO 205 and 84.7 µM (inactive) in the experiment with SF-295.
In the case of `CSc1cnc2ccccc2c1Sc1c[nH]c2ccccc2c1=O`, the GI50 in the experiment on SF-268 is 17.3 µM (inactive); in the experiment on HCT-15, 7.1 µM; in the experiment on Malme-3M it was 6.55 µM (inactive); in the experiment on SNB-19 it was 20 µM (inactive); in the experiment with NCI-H226, 7.31 µM (inactive); in the experiment on SR, 3.96 µM (inactive). The GI50 is 1.93 µM (inactive) with NCI-H522; 11.3 µM (inactive) in the experiment with UACC-257; 4.03 µM (inactive) in the experiment with UACC-62; 5.51 µM (inactive) with A549; 3.56 µM (inactive) in the experiment with SW-620; 6.76 µM (inactive) with M14. For the same compound, the results for the GI50 in the experiment on IGROV-1, in the experiment on COLO 205 and in the experiment on SF-295 were 14.4 µM (inactive), 6.24 µM (inactive) and 7.59 µM (inactive), respectively.
`CCCCN(CCCC)CCC(O)c1cc(-c2ccc(C(F)(F)F)cc2)nc(-c2ccc(C(F)(F)F)cc2)c1` (stereo not drawn): the GI50 in the experiment on SF-268 is > 100 µM (inactive); in the experiment on HCT-15, > 100 µM; in the experiment on Malme-3M, > 100 µM (inactive); in the experiment with SNB-19 it was > 100 µM (inactive); in the experiment with MDA-N, > 100 µM (inactive); in the experiment on SR, > 100 µM (inactive). Also, the GI50 in the experiment with NCI-H522, in the experiment with UACC-257, in the experiment with UACC-62, with NCI/ADR-RES, in the experiment with SW-620 and in the experiment with M14 was > 100 µM (inactive) each time. Besides, the GI50 with IGROV-1, in the experiment with COLO 205, with MDA-MB-435 and with SF-295 was > 100 µM (inactive) in each case.
For the compound `COC(=O)[C@@H]1CN(C(C)=O)C(=O)N1C(=O)OCc1ccccc1`, the GI50 with SF-268 was 59.2 µM (inactive); in the experiment with HCT-15, > 100 µM; in the experiment with Malme-3M it was > 100 µM (inactive); in the experiment on SNB-19 it was > 100 µM (inactive); in the experiment on MDA-N, > 100 µM (inactive); in the experiment with NCI-H226, > 100 µM (inactive). In addition, the GI50 in the experiment with SR, in the experiment with NCI-H522, in the experiment on UACC-257, in the experiment with NCI/ADR-RES, in the experiment with A549 and in the experiment on SW-620 was > 100 µM (inactive) in each case. Further, the GI50 in the experiment with M14, in the experiment with IGROV-1, with COLO 205, with MDA-MB-435, with Hs-578T and with SF-295 was > 100 µM (inactive) in each case.
As to `O=C(NC(CS)C(=O)O)c1cccc2c(=O)c3ccccc3[nH]c12` (stereo not drawn), the GI50 was > 100 µM (inactive) in the experiment on SF-268; > 100 µM in the experiment on HCT-15; > 100 µM (inactive) in the experiment with Malme-3M; > 100 µM (inactive) with SNB-19; > 100 µM (inactive) with MDA-N; > 100 µM (inactive) in the experiment on NCI-H226. For the same compound, the GI50 in the experiment with SR was > 100 µM (inactive); in the experiment with NCI-H522, 47 µM (inactive); with UACC-62, > 100 µM (inactive); with NCI/ADR-RES, > 100 µM (inactive); in the experiment with A549, > 100 µM (inactive); with SW-620 it was > 100 µM (inactive). Also, the GI50 in the experiment with M14, in the experiment on IGROV-1, in the experiment on COLO 205, in the experiment on MDA-MB-435, in the experiment on Hs-578T and in the experiment on SF-295 was > 100 µM (inactive) throughout.
With `CCn1c(O)c(C(=O)Nc2cccs2)c(=O)n(CC)c1=S`, the GI50 in the experiment with SF-268 was 19.3 µM (inactive); in the experiment with HCT-15, 14 µM; in the experiment with Malme-3M, 19.9 µM (inactive); with SNB-19, 19.5 µM (inactive); with NCI-H226 it was 25.5 µM (inactive); in the experiment on SR, 29.5 µM (inactive). The GI50 was 18 µM (inactive) with NCI-H522; 22.7 µM (inactive) with UACC-257; 16 µM (inactive) with UACC-62; 18.5 µM (inactive) in the experiment with A549; 23.2 µM (inactive) in the experiment with SW-620; 19.8 µM (inactive) in the experiment with M14. Also, the values for the GI50 in the experiment with IGROV-1, in the experiment with COLO 205 and with SF-295 were 20.5 µM (inactive), 16.8 µM (inactive) and 11.7 µM (inactive), respectively.
In the case of `O=c1oc2cccnc2n1CCN1CCN(c2ccc(Oc3ccccc3)cc2)CC1`, the GI50 is > 100 µM (inactive) in the experiment on SF-268; 90.8 µM in the experiment with HCT-15; 41.6 µM (inactive) in the experiment with Malme-3M; > 100 µM (inactive) with SNB-19; 79.6 µM (inactive) in the experiment on MDA-N; 8.71 µM (inactive) in the experiment with SR. Moreover, the GI50 was 31.6 µM (inactive) in the experiment on NCI-H522; 21.9 µM (inactive) in the experiment on UACC-257; 32.5 µM (inactive) in the experiment with NCI/ADR-RES; > 100 µM (inactive) in the experiment on A549; > 100 µM (inactive) with SW-620; 89.7 µM (inactive) in the experiment with M14. For the same compound, the GI50 is > 100 µM (inactive) in the experiment with IGROV-1, 63.2 µM (inactive) in the experiment on MDA-MB-435, > 100 µM (inactive) in the experiment with Hs-578T and 43 µM (inactive) with SF-295.
On to `CCCCOP(=O)(OCCCC)C(NS(=O)(=O)c1ccccc1)(C(=O)OCC)C(F)(F)F` (stereo not drawn), for which the GI50 is 43 µM (inactive) in the experiment on SF-268; 39.7 µM in the experiment on HCT-15; 23.1 µM (inactive) in the experiment on Malme-3M; 29.2 µM (inactive) in the experiment with SNB-19; 37.2 µM (inactive) in the experiment with MDA-N; 27.6 µM (inactive) with NCI-H226. For the same compound, the GI50 was 26.7 µM (inactive) with SR; 31.9 µM (inactive) in the experiment on UACC-257; 43.9 µM (inactive) in the experiment on UACC-62; 26 µM (inactive) with NCI/ADR-RES; 42.8 µM (inactive) with A549; 25.9 µM (inactive) in the experiment on M14. Moreover, the GI50 in the experiment with IGROV-1 is 23.3 µM (inactive); in the experiment on COLO 205, 19.5 µM (inactive); in the experiment on MDA-MB-435, 29.5 µM (inactive); with Hs-578T it was 54.8 µM (inactive); with SF-295 it was 25.8 µM (inactive).
On to `COc1ccc(/C(Cl)=C/c2ccc(Cl)c(Cl)c2)cc1`, for which the GI50 with SF-268 is 35.5 µM (inactive); in the experiment with HCT-15 it was 23.1 µM; with Malme-3M, 20.9 µM (inactive); in the experiment on SNB-19, 63.4 µM (inactive); with NCI-H226, 14.9 µM (inactive); with SR it was 18.9 µM (inactive). The GI50 is 16.3 µM (inactive) with NCI-H522; 24.3 µM (inactive) with UACC-257; 24.3 µM (inactive) with UACC-62; 22.4 µM (inactive) in the experiment with A549; 43.2 µM (inactive) in the experiment on SW-620; 33.2 µM (inactive) with M14. The GI50 in the experiment with IGROV-1 was 38.1 µM (inactive); with COLO 205 it was 22.1 µM (inactive); with SF-295 it was 23.7 µM (inactive).
In the case of `COc1ccc(CNc2nc(NCc3ccc(OC)cc3)nc(NC(C)C)n2)cc1`, the GI50 in the experiment with SF-268 is 9.02 µM (inactive); in the experiment with HCT-15 it was 4.12 µM; in the experiment with Malme-3M it was 5 µM (inactive); in the experiment on SNB-19 it was 84.1 µM (inactive); with MDA-N, 2.69 µM (inactive); with SR it was 3.84 µM (inactive). Also, the GI50 is 3.03 µM (inactive) in the experiment with NCI-H522; 7.85 µM (inactive) in the experiment with UACC-257; 4.28 µM (inactive) in the experiment with UACC-62; 4.58 µM (inactive) in the experiment with NCI/ADR-RES; 6.24 µM (inactive) in the experiment with A549; 4.22 µM (inactive) with SW-620. In addition, the GI50 with M14 was 3.61 µM (inactive); in the experiment with IGROV-1, 7.53 µM (inactive); with COLO 205, 9.57 µM (inactive); in the experiment on MDA-MB-435 it was 3.1 µM (inactive); with Hs-578T, 13.5 µM (inactive); with SF-295, 3.96 µM (inactive).
